In brackets after ≈: the same amount, converted by molar mass. Like-named read-outs stand apart in the source and are kept apart here.
Assays:
TYK2-JH2 domain = target: T1, TYK2-JH2 domain (Homo sapiens, UniProt P29597); experiment: Binding activity test for JH2 domain of TYK2 (Tb-antibody/tracer FRET)
T1 construct: IC50 on JH2 domain activity (nM)
How it was run: (§1)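 FRET read-out after 60 min at 25° C plus overnight at 4° C; tracer displacement detected via Tb-labelled antibody on the JH2 domain. Dose-response used 11 points at 3-fold dilution.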

[1] = target: T2, Ba/F3-FL-TYK2-P760L cells (Homo sapiens, UniProt P29597, P760L, cells depend on it); experiment: Anti-proliferative assay, Ba/F3-FL-TYK2-P760L cells (Cell-Titer Glo); format: cell-based; details: 72 h, read-out: BaF3-FL-T2P760L IC50
T2 construct: BaF3-FL-T2P760L (nM)
How it was run: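 Compound exposure ran 72 h at 37 °C in 5% CO2 across nine 3-fold concentrations from a 20 μM top dose, added 24 h after seeding 2000 cells/well.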

[2] = Plasma protein binding by equilibrium dialysis; format: in vitro ADME; details: human plasma, equilibrium dialysis 5 hours at 37° C.; read-out: % Bound (human) (converted)
Method: Plasma Protein Binding by Equilibrium Dialysis
Aliquots of test compound stock solution and warfarin stock solution were spiked into plasma to give the matrix solutions with theoretical concentrations of test compound at 0.2 and 2 μM or warfarin at 2 μM. Immediately transfer 50 μL of the spiked plasma solution suspension to a 96-well plate to act as T=0 control sample. Assemble the dialysis set up following the manufacturer's instructions. Load cells with 150 μL of plasma sample and dialyzed against equal volume of dialysis buffer (PBS). The assay is performed in duplicate. Cover the unit with gas permeable lid and incubate for 5 hours at 37° C. at 100 rpm in a constant temperature shaking box. At the end of incubation, remove lid and pipette 50 μL of post-dialysis samples from both buffer and plasma solution chambers into separated 96-well plate for analysis, respectively. Add 50 μL of plasma solution to the buffer samples, and an equal volume of PBS to the collected plasma solution samples. Shake the plate at 1000 rpm for 2 minutes and add 600 μL of 50% ACN/MeOH containing an appropriate internal standard (IS) to precipitate protein and release compound. Vortex at 1000 rpm for 10 minutes. Centrifuge for 10 minutes at 4000 rpm. Then transfer 75 μL of the supernatant to new 96-well plates for analysis. Add 150 μL of distilled water to each sample and mix for analysis by LC-MS/MS.
The free rate (% Unbound), binding rate (% Bound), and recovery rate (% Recovery) of the compound are calculated as follows: […]

Kinetic solubility = format: physicochemical; details: phosphate buffer, aqueous buffer, kinetic from dmso stock, PBS (pH 7.4), 1% DMSO, room temperature
Method: Aliquots of 8 μL of reference and test compound stock solutions (10 mM/5 mM) are added into 792 μL of 100 mM pH 7.4 phosphate buffer. The final DMSO concentration is 1%. Sample tubes are shaken for 2 hours at 1000 rpm at room temperature. Samples are centrifuged at 12000 rpm for 10 min to precipitate un-dissolved particles. And transfer the supernatants to a new tube or plate. Add 5 μL of samples (no diluted, 10 times diluted and 100 times diluted) and standard curve samples to 95 μL of ACN containing IS for LC-MS/MS analysis.

Ba/F3-TEL-TYK2 cells = target: T3, Ba/F3-TEL-TYK2 cells (Homo sapiens, UniProt P29597); experiment: Anti-proliferative assay, Ba/F3-TEL-TYK2 cells (Cell-Titer Glo); format: cell-based; details: 72 h, read-out: BaF3-TEL-TYK2 IC50
T3 construct: fused on or other part: Dimerization domain of TEL (ETV6) fused to the TYK2 kinase domain; P41212 (Transcription factor ETV6)
Method: Anti-Proliferative Assay Dimerization domain of Tel protein fused with JAK kinase domain was permanently transduced into Ba/F3 cells, whose proliferation is dependent on JAK activity in the absence of IL-3 induction. These engineered Ba/F3 cells (Ba/F3-FL-TYK2-[…], Ba/F3-TEL-TYK2 and Ba/F3-TEL-JAK2) were used to monitor JAK inhibitory activities of the compounds in the cellular. […] Cells were seeded at 2000/well of white flat bottom 96-well plates. The well containing medium only was used as background control. After 24 h growth, cells were treated with compounds. The test compounds were dissolved in DMSO to a stock concentration of 20 mM. 3-fold serially diluted compounds for 9 concentrations with top concentration of 20 μM was added into the each well. […] The cells continued to grow at 37° C. in 5% CO2 for 72 h after compound treatment. The viability was measured by cellular ATP determination using the Cell-Titer Glo luciferase reagent (Promega). The Luminescence value was recorded by a multi-label reader Envision (PerkinElmer).

[3] = Microsomal metabolic stability assay; format: in vitro ADME; details: pH 7.4, 0.5 mg/mL protein, 1 μM compound
How it was run: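 Parent loss was tracked by LC/MS/MS at 0, 5, 15, 30 and 45 min, with half-life derived from the ln(% remaining)–time slope. Incubation at 37 °C, pH 7.4 phosphate/EDTA buffer: 0.5 mg/mL microsomes, 1 μM compound, NADPH-regenerated (2 mM).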

JAK1 = target: T4, JAK1 (Homo sapiens, UniProt P23458); experiment: JAK1 kinase activity, microfluidic assay (Caliper EZ Reader II); format: biochemical; details: JAK1 5 nM, 1 mM ATP
T4 construct: purchased Carna Biosciences
Method: (§2) Testing for JAK1, JAK2 and TYK2 Kinase Activities
(§3) JAK activity was determined in the reaction buffer 50 mM HEPES, 0.01% Brij35, 10 mM MgCl2, 2 mM DTT by a microfluidic assay. The phosphorylation of a FAM labeled peptide substrate was monitored in the Caliper EZ Reader II (Perkin Elmer). The assay condition for each batch of enzyme (Carna Biosciences) was optimized to obtain 10% conversion rate of peptide substrate.
(§4) The test compounds were dissolved in DMSO to a stock concentration of 10 mM. Three-fold serially diluted compounds with top concentration of 5 μM were pre-incubated with JAK1, JAK2 or TYK2 for 10 min at ambient temperature. The final DMSO concentration of assay mixture was 1%. […] The reaction was stopped by adding 50 mM EDTA.
(§5) The percent inhibition was calculated by the following formula:
(§6) [formula] • wherein • Conversion %_max=the conversion rate in the positive well without addition of compound • Conversion %_sample=the conversion rate of test compounds • Conversion %_min=the conversion rate in the well without addition of enzyme
(§7) The dose-response (percent inhibition) curve was plotted and IC50 values were determined by GraphPad software.

JAK2 = target: T5, JAK2 (Homo sapiens, UniProt O60674); experiment: JAK2 kinase activity, microfluidic assay (Caliper EZ Reader II); format: biochemical; details: JAK2 0.125 nM, 1 mM ATP
T5 construct: purchased Carna Biosciences
Method: as §2, §3, §4, §5, §6, §7

TYK2 = target: T6, TYK2 (Homo sapiens, UniProt P29597); experiment: TYK2 kinase activity, microfluidic assay (Caliper EZ Reader II); format: biochemical; details: TYK2 1 nM, 1 mM ATP
T6 construct: purchased Carna Biosciences
Method: as §2, §3, §4, §5, §6, §7

JAK1-JH2 domain = target: T7, JAK1-JH2 domain (Homo sapiens, UniProt P23458); experiment: Binding activity test for JH2 domain of JAK1 (Tb-antibody/tracer FRET)
T7 construct: IC50 on JH2 domain activity (nM)
How it was run: as §1

[4] = dog liver microsomes, read-out: Dog LM Clint
[5] = dog liver microsomes, read-out: Dog LM T½
[6] = human liver microsomes, read-out: Human LM Clint
[7] = human liver microsomes, read-out: Human LM T½
[8] = rat liver microsomes, read-out: Rat LM Clint
[9] = rat liver microsomes, read-out: Rat LM T½

T1 sequence (P29597 589-875 limits assumed): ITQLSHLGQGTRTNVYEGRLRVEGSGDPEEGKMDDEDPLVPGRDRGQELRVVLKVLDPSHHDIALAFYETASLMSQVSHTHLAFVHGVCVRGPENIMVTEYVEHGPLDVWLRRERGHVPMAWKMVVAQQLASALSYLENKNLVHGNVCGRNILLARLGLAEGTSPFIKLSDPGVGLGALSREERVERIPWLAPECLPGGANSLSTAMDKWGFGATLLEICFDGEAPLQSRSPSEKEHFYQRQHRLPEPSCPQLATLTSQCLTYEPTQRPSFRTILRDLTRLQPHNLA
T3 sequence (P29597 whole entry, change not shown, the tested form may be a part): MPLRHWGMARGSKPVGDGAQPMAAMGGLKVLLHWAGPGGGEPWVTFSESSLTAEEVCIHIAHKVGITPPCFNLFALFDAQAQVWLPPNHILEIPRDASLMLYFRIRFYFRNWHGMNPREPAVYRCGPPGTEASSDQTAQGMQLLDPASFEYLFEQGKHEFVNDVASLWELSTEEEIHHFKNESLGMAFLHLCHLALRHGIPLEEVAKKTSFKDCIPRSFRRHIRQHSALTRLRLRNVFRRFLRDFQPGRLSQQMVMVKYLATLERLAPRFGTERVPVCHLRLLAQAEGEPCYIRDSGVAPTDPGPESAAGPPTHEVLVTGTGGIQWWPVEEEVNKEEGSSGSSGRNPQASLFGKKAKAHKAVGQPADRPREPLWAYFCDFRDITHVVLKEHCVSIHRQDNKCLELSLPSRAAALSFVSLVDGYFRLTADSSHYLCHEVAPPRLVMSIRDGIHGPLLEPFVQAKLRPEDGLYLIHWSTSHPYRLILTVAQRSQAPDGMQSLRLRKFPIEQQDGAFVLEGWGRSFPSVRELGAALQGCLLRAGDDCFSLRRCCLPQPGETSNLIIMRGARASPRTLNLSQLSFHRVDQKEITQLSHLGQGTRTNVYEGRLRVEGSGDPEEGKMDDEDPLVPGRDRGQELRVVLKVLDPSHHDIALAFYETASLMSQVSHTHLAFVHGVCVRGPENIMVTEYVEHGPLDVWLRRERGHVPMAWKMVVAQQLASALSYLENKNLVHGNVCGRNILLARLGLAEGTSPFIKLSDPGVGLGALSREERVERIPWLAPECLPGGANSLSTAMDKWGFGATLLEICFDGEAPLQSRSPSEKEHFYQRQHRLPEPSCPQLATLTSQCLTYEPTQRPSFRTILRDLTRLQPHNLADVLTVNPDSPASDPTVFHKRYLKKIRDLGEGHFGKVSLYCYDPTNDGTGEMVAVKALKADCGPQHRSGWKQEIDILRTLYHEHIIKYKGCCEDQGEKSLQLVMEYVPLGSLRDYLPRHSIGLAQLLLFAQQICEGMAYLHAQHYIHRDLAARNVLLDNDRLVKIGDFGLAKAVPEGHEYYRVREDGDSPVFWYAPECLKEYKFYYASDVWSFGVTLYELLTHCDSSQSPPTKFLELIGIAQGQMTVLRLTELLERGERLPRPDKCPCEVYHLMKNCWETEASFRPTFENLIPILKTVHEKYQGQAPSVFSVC
T2 sequence (P29597 whole entry P760L): as the sequence (P29597 whole entry, change not shown, the tested form may be a part) above, with P760L counted along it
T4 sequence (P23458 whole entry): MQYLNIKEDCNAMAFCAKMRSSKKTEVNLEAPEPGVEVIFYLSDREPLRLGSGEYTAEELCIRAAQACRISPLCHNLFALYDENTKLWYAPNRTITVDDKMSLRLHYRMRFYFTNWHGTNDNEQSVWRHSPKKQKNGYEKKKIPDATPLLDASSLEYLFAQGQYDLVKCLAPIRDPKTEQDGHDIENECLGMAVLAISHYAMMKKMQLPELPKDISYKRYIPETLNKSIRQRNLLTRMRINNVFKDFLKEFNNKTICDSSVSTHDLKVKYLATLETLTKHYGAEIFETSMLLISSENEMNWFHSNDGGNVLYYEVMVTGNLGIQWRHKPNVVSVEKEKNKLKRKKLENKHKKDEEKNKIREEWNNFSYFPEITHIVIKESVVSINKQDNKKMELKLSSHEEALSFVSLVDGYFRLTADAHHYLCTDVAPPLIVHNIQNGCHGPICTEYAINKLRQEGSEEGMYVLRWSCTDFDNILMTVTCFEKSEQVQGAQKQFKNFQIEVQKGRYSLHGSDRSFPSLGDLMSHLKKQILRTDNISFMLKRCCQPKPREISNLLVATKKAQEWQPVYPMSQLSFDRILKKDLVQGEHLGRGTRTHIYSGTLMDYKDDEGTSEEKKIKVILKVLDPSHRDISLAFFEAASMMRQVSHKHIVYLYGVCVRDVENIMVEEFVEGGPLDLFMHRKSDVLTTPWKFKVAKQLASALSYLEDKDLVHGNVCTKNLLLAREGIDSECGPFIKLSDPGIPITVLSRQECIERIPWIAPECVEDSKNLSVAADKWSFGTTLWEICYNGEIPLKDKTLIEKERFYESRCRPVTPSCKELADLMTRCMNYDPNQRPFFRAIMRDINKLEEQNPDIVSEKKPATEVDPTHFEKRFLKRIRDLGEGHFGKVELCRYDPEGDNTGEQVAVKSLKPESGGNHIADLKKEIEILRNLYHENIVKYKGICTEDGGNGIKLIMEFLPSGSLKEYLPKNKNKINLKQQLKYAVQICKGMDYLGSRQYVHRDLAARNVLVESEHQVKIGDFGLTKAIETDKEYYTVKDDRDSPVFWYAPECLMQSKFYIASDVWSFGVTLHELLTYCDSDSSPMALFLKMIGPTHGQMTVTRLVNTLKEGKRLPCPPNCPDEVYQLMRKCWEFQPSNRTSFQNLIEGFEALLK
T6 sequence (P29597 whole entry): as the sequence (P29597 whole entry, change not shown, the tested form may be a part) above
T5 sequence (O60674 whole entry): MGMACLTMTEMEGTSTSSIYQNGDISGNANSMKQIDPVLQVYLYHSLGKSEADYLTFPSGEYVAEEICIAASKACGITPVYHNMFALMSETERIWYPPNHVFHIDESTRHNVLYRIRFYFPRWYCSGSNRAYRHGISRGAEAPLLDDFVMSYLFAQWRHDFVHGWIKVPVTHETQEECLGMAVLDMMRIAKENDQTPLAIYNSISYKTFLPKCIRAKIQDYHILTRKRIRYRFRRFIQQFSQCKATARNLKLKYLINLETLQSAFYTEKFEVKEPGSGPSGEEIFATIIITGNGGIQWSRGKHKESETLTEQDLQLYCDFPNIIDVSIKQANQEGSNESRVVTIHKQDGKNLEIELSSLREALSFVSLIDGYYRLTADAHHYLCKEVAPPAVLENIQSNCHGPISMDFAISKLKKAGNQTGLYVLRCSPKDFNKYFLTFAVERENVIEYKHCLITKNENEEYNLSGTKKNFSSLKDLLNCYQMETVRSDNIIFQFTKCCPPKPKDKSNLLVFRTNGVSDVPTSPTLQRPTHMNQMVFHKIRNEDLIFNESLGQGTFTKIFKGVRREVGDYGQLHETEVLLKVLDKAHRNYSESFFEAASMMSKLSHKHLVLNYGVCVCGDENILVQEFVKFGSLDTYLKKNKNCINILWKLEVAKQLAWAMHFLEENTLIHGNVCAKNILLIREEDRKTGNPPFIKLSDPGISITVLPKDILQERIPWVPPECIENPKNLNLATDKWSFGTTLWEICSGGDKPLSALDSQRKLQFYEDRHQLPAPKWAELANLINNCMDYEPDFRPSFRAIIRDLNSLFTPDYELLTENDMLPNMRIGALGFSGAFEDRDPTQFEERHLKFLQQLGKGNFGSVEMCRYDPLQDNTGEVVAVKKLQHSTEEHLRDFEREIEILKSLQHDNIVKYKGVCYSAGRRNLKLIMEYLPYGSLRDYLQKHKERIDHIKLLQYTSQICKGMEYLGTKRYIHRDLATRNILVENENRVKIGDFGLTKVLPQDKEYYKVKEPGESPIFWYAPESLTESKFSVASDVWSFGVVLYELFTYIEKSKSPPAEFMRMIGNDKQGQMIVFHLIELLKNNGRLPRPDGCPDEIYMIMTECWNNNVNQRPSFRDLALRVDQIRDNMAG
T7 sequence (P23458 583-855 limits assumed): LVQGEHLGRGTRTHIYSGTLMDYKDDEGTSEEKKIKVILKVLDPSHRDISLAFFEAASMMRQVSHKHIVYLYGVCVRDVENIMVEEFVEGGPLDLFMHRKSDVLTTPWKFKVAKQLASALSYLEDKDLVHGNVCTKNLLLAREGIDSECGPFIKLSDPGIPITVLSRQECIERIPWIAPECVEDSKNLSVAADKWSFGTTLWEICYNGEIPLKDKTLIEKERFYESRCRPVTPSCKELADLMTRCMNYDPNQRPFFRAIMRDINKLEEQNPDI

SMILES | IC50 (TYK2-JH2 domain) [nM] | GI50 [1] [nM] | fraction unbound at 5 h [2] | solubility at 2 h (Kinetic solubility) [µM] | GI50 (Ba/F3-TEL-TYK2 cells) [µM] | microsomal CLint at 1 μM [3, 4] [µL/min/mg] | half-life at 1 μM [3, 5] [min] | microsomal CLint at 1 μM [3, 6] [µL/min/mg] | half-life at 1 μM [3, 7] [min] | microsomal CLint at 1 μM [3, 8] [µL/min/mg] | half-life at 1 μM [3, 9] [min] | IC50 (JAK1) [µM] | IC50 (JAK2) [µM] | IC50 (TYK2) [µM] | JAK1/TYK2 selectivity (TYK2-JH2 domain; ratio JAK1-JH2 IC50 / TYK2-JH2 IC50) | IC50 (JAK1-JH2 domain) [nM]
CCn1ccc2scc(Nc3cc(NC(=O)C4CC4)ncc3C(=O)NC)c2c1=O [Example 17, 6-(Cyclopropanecarboxamido)-4-((5-ethyl-4-oxo-4,5-dihydrothieno[3,2-c]pyridin-3-yl)amino)-N-methylnicotinamide] | 0.202 | 114 | – | – | > 10 | 47.1 | 73.6 | 128 | 27.1 | 209 | 16.6 | > 5 | > 5 | > 5 | – | –
[2H]C([2H])([2H])NC(=O)c1cnc2cc1Nc1cc(cc(-c3ncn(CC)n3)c1OC)COCc1nc(ccc1F)N2 [Example 85, 11-(1-Ethyl-1H-1,2,4-triazol-3-yl)-18-fluoro-10-methoxy-N-(methyl-d3)-15-oxa-2,4,8,21-tetraazatetracyclo[15.3.1.1^{3,7}.1^{9,13}]tricosa-1(20),3,5,7(23),9,11,13(22),17(21),18-nonaene-6-carboxamide] | – | 142 | – | 15.2 (≈ 7.74 µg/mL) | – | – | – | – | – | – | – | – | – | – | – | –
[2H]C([2H])([2H])NC(=O)c1cnc(Nc2ccc(F)cn2)cc1Nc1cn(CCOC)c2ccn(CC)c(=O)c12 [Example 192, 4-((5-Ethyl-1-(2-methoxyethyl)-4-oxo-4,5-dihydro-1H-pyrrolo[3,2-c]pyridin-3-yl)amino)-6-((5-fluoropyridin-2-yl)amino)-N-(methyl-d3)nicotinamide] | 3.37 | 124 | – | 17.8 (≈ 8.59 µg/mL) | – | 21.9 | 63.4 | 26.8 | 51.6 | 72.6 | 19.1 | – | – | – | – | –
[2H]C([2H])([2H])NC(=O)c1cnc(Nc2ccn(C)n2)cc1Nc1nn(C)c2ccn(CC)c(=O)c12 [Example 219] | 2.86 | 1260 | – | 33.9 (≈ 14.4 µg/mL) | – | – | – | – | – | – | – | – | – | – | – | –
[2H]C([2H])([2H])NC(=O)c1cnc(NC(=O)C2CC2)cc1Nc1ccc2ncn(CC)c2c1OC [Example 167, 6-(Cyclopropanecarboxamido)-4-((1-ethyl-7-methoxy-1H-benzo[d]imidazol-6-yl)amino)-N-(methyl-d3)nicotinamide] | – | 100 | – | 109 (≈ 44.9 µg/mL) | – | 45 | 30.8 | 57.8 | 24 | 149 | 9.29 | – | – | – | – | –

Further compounds by falling GI50 [1], results first:

IC50 (TYK2-JH2 domain) [nM] | GI50 [1] [nM] | fraction unbound at 5 h [2] | solubility at 2 h (Kinetic solubility) [µM] | GI50 (Ba/F3-TEL-TYK2 cells) [µM] | microsomal CLint at 1 μM [3, 4] [µL/min/mg] | half-life at 1 μM [3, 5] [min] | microsomal CLint at 1 μM [3, 6] [µL/min/mg] | half-life at 1 μM [3, 7] [min] | microsomal CLint at 1 μM [3, 8] [µL/min/mg] | half-life at 1 μM [3, 9] [min] | IC50 (JAK1) [µM] | IC50 (JAK2) [µM] | IC50 (TYK2) [µM] | JAK1/TYK2 selectivity (TYK2-JH2 domain; ratio JAK1-JH2 IC50 / TYK2-JH2 IC50) | IC50 (JAK1-JH2 domain) [nM] | SMILES
0.782 | 357 | – | 47.4 (≈ 20.7 µg/mL) | – | – | – | – | – | – | – | – | – | – | 32.5 | 25.4 | [2H]C([2H])([2H])NC(=O)c1cnc(NC(=O)C2CC2)cc1Nc1ccc2cnn(C(C)C#N)c2c1OC (stereo not drawn) [Example 249, 4-((1-(1-Cyanoethyl)-7-methoxy-1H-indazol-6-yl)amino)-6-(cyclopropanecarboxamido)-N-(methyl-d3)nicotinamide]
0.407 | 149 | 0.039 | 8.45 (≈ 3.24 µg/mL) | – | – | – | – | – | – | – | – | – | – | – | – | [2H]C([2H])([2H])NC(=O)c1cnc(NC(=O)C2CC2)cc1Nc1ccc2cn[nH]c2c1OC [Example 207, 6-(Cyclopropanecarboxamido)-4-((7-methoxy-1H-indazol-6-yl)amino)-N-(methyl-d3)nicotinamide]
– | 111 | – | 6.3 (≈ 2.49 µg/mL) | – | < 11.5 | > 120 | 14.4 | 96.2 | 32.4 | 42.8 | – | – | – | – | – | CNC(=O)c1nnc(NC(=O)C2CC2)cc1Nc1cn(C)c2ccn(C)c(=O)c12 [Example 49, 6-(Cyclopropanecarboxamido)-4-((1,5-dimethyl-4-oxo-4,5-dihydro-1H-pyrrolo[3,2-c]pyridin-3-yl)amino)-N-methylpyridazine-3-carboxamide]
1.33 | 62.9 | – | – | > 20 | 21.4 | 64.8 | 80 | 17.3 | 35.8 | 38.7 | – | – | – | – | – | CCn1ccc2c(c(Nc3cc(NC(=O)C4CC4)nnc3C(=O)NC)cn2C)c1=O [Example 23, 6-(Cyclopropanecarboxamido)-4-((5-ethyl-1-methyl-4-oxo-4,5-dihydro-1H-pyrrolo[3,2-c]pyridin-3-yl)amino)-N-methylpyridazine-3-carboxamide]
0.48 | 50.9 | – | – | > 20 | – | – | – | – | – | – | > 5 | > 5 | > 5 | – | – | CNC(=O)c1nnc(NC(=O)C2CC2)cc1Nc1csc2ccn(C)c(=O)c12 [Example 27, 6-(Cyclopropanecarboxamido)-N-methyl-4-((5-methyl-4-oxo-4,5-dihydrothieno[3,2-c]pyridin-3-yl)amino)pyridazine-3-carboxamide]

From patent publication US20250115597A1, “TYK2 INHIBITORS AND COMPOSITIONS AND METHODS THEREOF” (LYNK PHARMACEUTICALS CO. LTD., priority 2021, published 2025)
